# Target: Chymotrypsinogen B (Bos taurus) (UniProt P00767)
# Experiment: The compound was tested for inhibitory potency against Chymotrypsinogen
# Chain of Chymotrypsinogen B (Bos taurus) (P00767 16-146 limits assumed, other chains not shown): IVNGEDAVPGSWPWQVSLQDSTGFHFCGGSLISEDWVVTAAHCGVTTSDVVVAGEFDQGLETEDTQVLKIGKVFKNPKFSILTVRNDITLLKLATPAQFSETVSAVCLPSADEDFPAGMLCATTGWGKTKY
# Chain of Chymotrypsinogen B (Bos taurus) (P00767 149-245 limits assumed, other chains not shown): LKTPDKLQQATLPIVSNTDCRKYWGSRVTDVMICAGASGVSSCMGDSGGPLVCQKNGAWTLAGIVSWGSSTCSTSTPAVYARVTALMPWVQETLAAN
row,SMILES,K inact/Km [M⁻¹ s⁻¹]
1,O=C(Oc1ccccc1)c1cc2cc(CCl)ccc2oc1=O,100000
2,O=C(Cc1ccccc1)c1cc2cc(CCl)ccc2oc1=O,10000
3,O=C(c1ccccc1)c1cc2cc(CCl)ccc2oc1=O,2400
4,O=C(Nc1ccccc1)c1cc2cc(CCl)ccc2oc1=O,200
5,O=C(Sc1ccccc1)c1cc2cc(CCl)ccc2oc1=O,48000
